For this assay, the target named is Glycogen synthase kinase-3 beta (Homo sapiens, UniProt P49841). Type of assay: cell-based, Sf9.
Glycogen synthase kinase-3 beta, sequence (P49841 whole entry): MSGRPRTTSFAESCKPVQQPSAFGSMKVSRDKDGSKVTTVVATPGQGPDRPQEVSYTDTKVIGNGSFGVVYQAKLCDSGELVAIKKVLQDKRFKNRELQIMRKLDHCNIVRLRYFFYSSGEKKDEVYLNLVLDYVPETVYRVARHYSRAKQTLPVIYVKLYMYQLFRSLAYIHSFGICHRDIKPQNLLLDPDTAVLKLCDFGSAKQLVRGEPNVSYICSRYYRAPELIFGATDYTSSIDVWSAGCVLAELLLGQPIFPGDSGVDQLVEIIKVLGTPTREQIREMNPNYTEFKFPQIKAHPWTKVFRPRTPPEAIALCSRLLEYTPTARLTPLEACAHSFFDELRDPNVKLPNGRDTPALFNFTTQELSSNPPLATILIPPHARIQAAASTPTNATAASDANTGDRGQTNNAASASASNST
Description: Inhibition of GSK3beta (unknown origin) expressed in Sf9 cells using GS1 as substrate and [gamma32]ATP after 30 min by scinitllation counting
On to `CN1CCN(c2cnc(NCCNc3ccc([N+](=O)[O-])c(N)n3)nc2-c2ccc(Cl)cc2Cl)C(=O)C1`, for which half-maximal inhibition (IC50) was put at 3.98 nM. This lies in the single-digit nanomolar range. As to `O=C1NC(=O)C(c2cnc3cccnn23)=C1c1cn2c3c(cccc13)CN(C(=O)N1CCCCC1)CC2` [BISARYLMALEIMIDE 1], 0.708 nM corresponded to half-maximal inhibition (IC50).

Consider `O=C1NC(=O)C(c2cncc3ccoc23)=C1c1cn2c3c(cccc13)CN(C(=O)N1CCOCC1)CC2` [BISARYLMALEIMIDE 2], for which the IC50 (usually the concentration needed to halve the response being measured) is 0.794 nM. Take `CC(=O)NC1=NC(=O)/C(=C2\CCNC(=O)c3c2cc(Br)n3C(C)=O)N1` [HYMENIALDISINE 2]: half-maximal inhibition (IC50) was put at 129 nM. Compared with the last compound, the IC50 is about 160-fold higher. Regarding `CC(=O)O/N=C1/C(=C2/C(=O)Nc3cc(Cl)c(Cl)cc32)Nc2ccccc21` [INDIRUBIN 1], half-maximal inhibition (IC50) required 3.98 nM. Turning to `O=C1Nc2ccc(Br)cc2/C1=C1/Nc2ccccc2/C1=N\O` [INDIRUBIN 2], the IC50 was 5.01 nM. Regarding `O=C1NC(=O)C2=C1c1cn(c3ccccc13)CCOCCOCCOCCn1cc2c2ccccc21` [INDOLYLYLMALEIMIDE 2], the IC50 is 21.9 nM.

On to `COc1ccc(Nc2nccc(-c3cnn4ncccc34)n2)cc1OC` [PYRAZOLOPYRIDAZINE 2], for which the Ki (as a rule, the dissociation constant of the complex between target and ligand, obtained from inhibition or displacement) is 12 nM.

Turning to `CN(C)CCNC(=O)c1ccc(/C=N/Nc2ncnc3c2cnn3-c2cccc3[nH]cnc23)cc1` [PYRAZOLOPYRIMIDINE 1], the midpoint of inhibition, the IC50, lay at 1.58 nM. This counts as single-digit nanomolar.

The values are drawn from ChEMBL document CHEMBL3045221, “A 2D image-based approach for modelling some glycogen synthase kinase 3 inhibitors” (Med Chem Res, 2007).
